# Columns and labels:
# [1] = tested on: barnyardgrass; experiment: Test D flooded paddy test; assay type: in vivo, Echinochloa crus-galli; conditions: 250 g ai/ha, applied to paddy water, visual rating after 13 to 14 days, scale 0 to 100 (0 no effect, 100 complete control)
# Summary of the method: (§1)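 Visual ratings from 0, meaning no effect, to 100, meaning complete control, were assigned against untreated controls 13 to 14 days after compounds were added to the floodwater of pots kept 3 cm deep, with plants at the 2-leaf stage.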
# [2] = tested on: soybean; experiment: Test C preemergence; assay type: in vivo, Glycine max
# Summary of the method: (§2)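 Test material, in non-phytotoxic solvent with surfactant, was sprayed on the soil directly after seeding (preemergence) or on young plants of 2–10 cm with one to two leaves (postemergence). Greenhouse, 10 days; 0–100 visual control scale.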
# [3] = tested on: corn; experiment: Test C preemergence; assay type: in vivo, Zea mays
# Summary of the method: as §2
# [4] = tested on: galium; experiment: Test C postemergence; assay type: in vivo, Galium aparine; conditions: 10 days, 0 to 100 scale (0 no effect, 100 complete control)
# Summary of the method: as §2
# [5] = tested on: oat, wild; experiment: Test C preemergence; assay type: in vivo, Avena fatua
# Summary of the method: as §2
# [6] = tested on: kochia; experiment: Test C postemergence; assay type: in vivo, Bassia scoparia; conditions: 10 days, 0 to 100 scale (0 no effect, 100 complete control)
# Summary of the method: as §2
# [7] = tested on: kochia; experiment: Test C preemergence; assay type: in vivo, Bassia scoparia
# Summary of the method: as §2
# [8] = tested on: barnyardgrass; experiment: Test C postemergence; assay type: in vivo, Echinochloa crusgalli; conditions: 10 days, 0 to 100 scale (0 no effect, 100 complete control)
# Summary of the method: as §2
# [9] = tested on: horseweed; experiment: Test C postemergence; assay type: in vivo, Erigeron canadensis; conditions: 10 days, 0 to 100 scale (0 no effect, 100 complete control)
# Summary of the method: as §2
# [10] = tested on: sedge, umbrella; experiment: Test D flooded paddy test; assay type: in vivo, Cyperus difformis; conditions: 250 g ai/ha, applied to paddy water, visual rating after 13 to 14 days, scale 0 to 100 (0 no effect, 100 complete control)
# Summary of the method: as §1
# [11] = tested on: blackgrass; experiment: Test C postemergence; assay type: in vivo, Alopecurus myosuroides; conditions: 10 days, 0 to 100 scale (0 no effect, 100 complete control)
# Summary of the method: as §2
# [12] = tested on: ragweed; experiment: Test C postemergence; assay type: in vivo, Ambrosia artemisiifolia; conditions: 10 days, 0 to 100 scale (0 no effect, 100 complete control)
# Summary of the method: as §2
# [13] = tested on: barnyardgrass; experiment: Test C preemergence; assay type: in vivo, Echinochloa crusgalli
# Summary of the method: as §2
# [14] = tested on: wheat; experiment: Test C preemergence; assay type: in vivo, Triticum aestivum
# Summary of the method: as §2
# [15] = tested on: oat, wild; experiment: Test C postemergence; assay type: in vivo, Avena fatua; conditions: 10 days, 0 to 100 scale (0 no effect, 100 complete control)
# Summary of the method: as §2
# [16] = tested on: wheat; experiment: Test C postemergence; assay type: in vivo, Triticum aestivum; conditions: 10 days, 0 to 100 scale (0 no effect, 100 complete control)
# Summary of the method: as §2
# [17] = tested on: ryegrass, Italian; experiment: Test C postemergence; assay type: in vivo, Lolium multiflorum; conditions: 10 days, 0 to 100 scale (0 no effect, 100 complete control)
# Summary of the method: as §2
# [18] = tested on: ragweed; experiment: Test C preemergence; assay type: in vivo, Ambrosia artemisiifolia
# Summary of the method: as §2
# [19] = tested on: blackgrass; experiment: Test C preemergence; assay type: in vivo, Alopecurus myosuroides
# Summary of the method: as §2
# [20] = tested on: foxtail, giant; experiment: Test C preemergence; assay type: in vivo, Setaria faberi
# Text: (§3) Seeds of plant species selected from barnyardgrass (Echinochloa crusgalli), blackgrass (Alopecurus myosuroides), corn (Zea mays), foxtail, giant (giant foxtail, Setaria faberi), green foxtail (Setaria viridis), goosegrass (Eleusine indica), kochia (Bassia scoparia), oat, wild (wild oat, Avena fatua), pigweed, palmer (palmer amaranth, palmer pigweed, Amaranthus palmeri), Pigweed, Redroot (redroot pigweed, Amaranthus retroflexus), ragweed (common ragweed, Ambrosia artemisiifolia), ryegrass, Italian ([…] ryegrass, Lolium multiflorum), soybean (Glycine max), and wheat (Triticum aestivum) were planted into a blend of loam soil and sand and treated preemergence with a directed soil spray using test chemicals formulated in a non-phytotoxic solvent mixture which included a surfactant. At the same time, plants selected from these crops and weed species and also galium (catchweed bedstraw, Galium aparine) and horseweed (Erigeron canadensis) were planted in pots containing the same blend of loam soil and sand and treated with postemergence applications of test chemicals formulated in the same manner. Plants ranged in height from 2 to 10 cm and were in the one- to two-leaf stage for the postemergence treatment. Treated plants and untreated controls were maintained in a greenhouse for 10 days, after which time all treated plants were compared to untreated controls and visually evaluated for injury. Plant response ratings, summarized in Table C, are based on a 0 to 100 scale where 0 is no effect and 100 is complete control. A dash (-) response means no test result.
# [21] = tested on: rice; experiment: Test D flooded paddy test; assay type: in vivo, Oryza sativa; conditions: 250 g ai/ha, applied to paddy water, visual rating after 13 to 14 days, scale 0 to 100 (0 no effect, 100 complete control)
# Summary of the method: as §1
# [22] = tested on: ducksalad; experiment: Test D flooded paddy test; assay type: in vivo, Heteranthera limosa; conditions: 250 g ai/ha, applied to paddy water, visual rating after 13 to 14 days, scale 0 to 100 (0 no effect, 100 complete control)
# Summary of the method: as §1
# [23] = tested on: soybean; experiment: Test C postemergence; assay type: in vivo, Glycine max; conditions: 10 days, 0 to 100 scale (0 no effect, 100 complete control)
# Summary of the method: as §2
# [24] = tested on: ryegrass, Italian; experiment: Test C preemergence; assay type: in vivo, Lolium multiflorum
# Summary of the method: as §2
# [25] = tested on: pigweed, palmer; experiment: Test C postemergence; assay type: in vivo, Amaranthus palmeri; conditions: 10 days, 0 to 100 scale (0 no effect, 100 complete control)
# Summary of the method: as §2
# [26] = tested on: foxtail, giant; experiment: Test C postemergence; assay type: in vivo, Setaria faberi; conditions: 10 days, 0 to 100 scale (0 no effect, 100 complete control)
# Text: as §3
# [27] = tested on: pigweed, palmer; experiment: Test C preemergence; assay type: in vivo, Amaranthus palmeri
# Summary of the method: as §2
# [28] = tested on: corn; experiment: Test C postemergence; assay type: in vivo, Zea mays; conditions: 10 days, 0 to 100 scale (0 no effect, 100 complete control)
# Summary of the method: as §2
# [29] = 500 g ai/ha, preemergence, 0 to 100 scale (0 no effect, 100 complete control)
# [30] = Preemergence, 125 g ai/ha, 0 to 100 scale, 0 no effect, 100 complete control
structure (smiles),measurement,setting,value
CCc1cc(C(=O)N2C[C@H](C)Oc3c(Cl)cccc32)cc(-n2cncn2)c1 [Compound 332],"Plant response rating, Barnyardgrass (Flood)",[1],0
same,Soybean plant response rating,[2]; [29],0
same,"Plant response rating, Soybean",[2]; [30],0
same,Corn plant response rating,[3]; [29],20
same,"Plant response rating, Corn",[3]; [30],20
same,"Plant response rating, Galium","[4]; 500 g ai/ha, postemergence",100
same,"Plant response rating, Galium","[4]; Postemergence, 125 g ai/ha",70
same,"Oat, Wild plant response rating",[5]; [29],30
same,"Plant response rating, Oat, Wild",[5]; [30],30
same,"Plant response rating, Kochia","[6]; 500 g ai/ha, postemergence",60
same,"Plant response rating, Kochia","[6]; Postemergence, 125 g ai/ha",10
same,Kochia plant response rating,[7]; [29],50
same,"Plant response rating, Kochia",[7]; [30],0
same,"Plant response rating, Barnyardgrass","[8]; 500 g ai/ha, postemergence",70
same,"Plant response rating, Barnyardgrass","[8]; Postemergence, 125 g ai/ha",40
same,"Plant response rating, Horseweed","[9]; 500 g ai/ha, postemergence",0
same,"Plant response rating, Horseweed","[9]; Postemergence, 125 g ai/ha",0
same,"Plant response rating, Sedge, Umbrella (Flood)",[10],0
same,"Plant response rating, Blackgrass","[11]; 500 g ai/ha, postemergence",70
same,"Plant response rating, Blackgrass","[11]; Postemergence, 125 g ai/ha",30
same,"Plant response rating, Ragweed","[12]; 500 g ai/ha, postemergence",20
same,"Plant response rating, Ragweed","[12]; Postemergence, 125 g ai/ha",0
same,Barnyardgrass plant response rating,[13]; [29],90
same,"Plant response rating, Barnyardgrass",[13]; [30],50
same,Wheat plant response rating,[14]; [29],0
same,"Plant response rating, Wheat",[14]; [30],0
same,"Plant response rating, Oat, Wild","[15]; 500 g ai/ha, postemergence",30
same,"Plant response rating, Oat, Wild","[15]; Postemergence, 125 g ai/ha",10
same,"Plant response rating, Wheat","[16]; 500 g ai/ha, postemergence",20
same,"Plant response rating, Wheat","[16]; Postemergence, 125 g ai/ha",20
same,"Plant response rating, Ryegrass, Italian","[17]; 500 g ai/ha, postemergence",70
same,"Plant response rating, Ryegrass, Italian","[17]; Postemergence, 125 g ai/ha",60
same,Ragweed plant response rating,[18]; [29],0
same,"Plant response rating, Ragweed",[18]; [30],0
same,Blackgrass plant response rating,[19]; [29],80
same,"Plant response rating, Blackgrass",[19]; [30],80
same,"Foxtail, Giant plant response rating",[20]; [29],100
same,"Plant response rating, Foxtail, Giant",[20]; [30],70
same,"Plant response rating, Rice (Flood)",[21],0
same,"Plant response rating, Ducksalad (Flood)",[22],0
same,"Plant response rating, Soybean","[23]; 500 g ai/ha, postemergence",100
same,"Plant response rating, Soybean","[23]; Postemergence, 125 g ai/ha",90
same,"Ryegrass, Italian plant response rating",[24]; [29],90
same,"Plant response rating, Ryegrass, Italian",[24]; [30],60
same,"Plant response rating, Pigweed, Palmer","[25]; 500 g ai/ha, postemergence",70
same,"Plant response rating, Pigweed, Palmer","[25]; Postemergence, 125 g ai/ha",70
same,"Plant response rating, Foxtail, Giant","[26]; 500 g ai/ha, postemergence",90
same,"Plant response rating, Foxtail, Giant","[26]; Postemergence, 125 g ai/ha",40
same,"Pigweed, Palmer plant response rating",[27]; [29],100
same,"Plant response rating, Pigweed, Palmer",[27]; [30],20
same,"Plant response rating, Corn","[28]; 500 g ai/ha, postemergence",30
same,"Plant response rating, Corn","[28]; Postemergence, 125 g ai/ha",30
